The record followed here is ChEMBL document CHEMBL1147037 (J Biol Chem, 2007).

Assay [1] deals with T1, Mu-type opioid receptor (Homo sapiens, UniProt P35372). The conditions noted are these: HEK293-A, at 100 µM.
Assay [2] has as its target T1, Mu-type opioid receptor. Nature of the assay: Activation of human mu opioid receptor expressed in HEK293a cells co-expressing YFP-labelled alphai1 and CFP-labelled beta1gamma2 Gi subunits assessed as Gi protein activation by fluorescence resonance energy transfer. It counts as cell-based, HEK293-A.
In assay [3] the target is T1, Mu-type opioid receptor. The assay can be described thus: Activation of human mu opioid receptor expressed in HEK293a cells coexpressing YFP-labelled alphai1 and CFP-labelled beta-1-gamma-2 Gi subunits assessed as decrease in fluorescence resonance energy transfer signal at 10 uM relative to morphine. The format is cell-based. The conditions noted are these: HEK293-A.

Assay [4] deals with T1, Mu-type opioid receptor. Nature of the assay: Displacement of [3H]naloxone from human mu poioid receptor expressed in HEK293 cells. The format is cell-based. (Loss of bound radioactivity is the signal in a displacement assay; it reports binding, not function.)

T1 sequence (P35372 whole entry): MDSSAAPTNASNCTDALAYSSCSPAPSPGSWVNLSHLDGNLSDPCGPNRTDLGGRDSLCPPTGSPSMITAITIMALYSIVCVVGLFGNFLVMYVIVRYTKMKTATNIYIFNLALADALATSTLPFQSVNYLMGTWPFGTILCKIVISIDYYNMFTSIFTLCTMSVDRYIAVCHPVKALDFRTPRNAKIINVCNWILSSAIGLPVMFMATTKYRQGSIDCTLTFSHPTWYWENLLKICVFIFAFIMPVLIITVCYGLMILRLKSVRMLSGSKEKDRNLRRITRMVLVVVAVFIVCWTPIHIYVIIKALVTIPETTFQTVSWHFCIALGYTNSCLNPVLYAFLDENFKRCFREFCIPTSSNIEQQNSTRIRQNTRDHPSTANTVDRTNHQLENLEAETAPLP

Regarding `COC1=C[C@]23CCN(C)[C@H](Cc4ccc(OC)c(O)c42)C3=C[C@@H]1O`, the Emax (commonly the maximal effect, on the per cent scale that the assay sets) in assay [1] was 17.7%.

The molecule `COc1ccc(C[C@@H]2c3cc(O)c(OC)cc3CCN2C)cc1O` registered a maximum response (Emax) in assay [1] of 15.9%.

As to `COc1ccc2c3c1O[C@H]1C(=O)C=C[C@H]4[C@@H](C2)N(C)CC[C@]314` [CODEINONE], the EC50 (as a rule, the concentration at which the effect is half-maximal) in assay [2] worked out at 294 nM. Moreover, in assay [3], the Emax amounted to 100%. Moreover, the Ki (commonly the equilibrium dissociation constant of an inhibitor or competing ligand from its target) in assay [4] stood at 459 nM.

In the case of `CN1CC[C@]23c4c5ccc(O)c4O[C@H]2C(=O)C=C[C@H]3[C@H]1C5` [MORPHINONE], the half-maximal effective concentration (EC50) in assay [2] amounted to 28 nM. The Emax in assay [3] came out at 100%. In assay [4], this molecule yielded an inhibitory constant (Ki) of 146 nM.

Turning to `COC1=CC=C2[C@H]3Cc4ccc(O)c5c4[C@@]2(CCN3C)[C@H]1O5` [ORIPAVINE], in assay [2], the EC50 is 277 nM. Also, the Emax in assay [3] worked out at 100%. Also, the Ki in assay [4] stood at 286 nM.

On to `COC1=C[C@]23CCN(C)[C@H](Cc4ccc(OC)c(O)c42)C3=CC1=O` [SALUTARIDINE], for which the EC50 in assay [2] stood at 32500 nM. In assay [1], this molecule registered an Emax of 54.4%. For the same molecule, the Ki in assay [4] is 34600 nM.

On to `COC1=CC=C2[C@H]3Cc4ccc(OC)c5c4[C@@]2(CCN3C)[C@H]1O5` [THEBAINE], for which the EC50 in assay [2] stood at 5600 nM. Also, the Emax in assay [1] stood at 76.3%. Besides, the Ki in assay [4] stood at 7400 nM.
